From patent US20250059499A1, “CELL-SURFACE ENGINEERING COMPOSITIONS AND METHODS FOR THE PREVENTION OF IMMUNE REJECTION” (THE UNIVERSITY OF BRITISH COLUMBIA, priority 2021, published 2025)
No end group written: not given here.

What was measured:
Ea.hy926 cells [1] = test: Cell viability (MTS assay) of modified cells; type: cell-based
Method: (§1) Cell viability measurements were performed on modified cells after washing with warm PBS twice. Then, the cells were subjected to MTS (3-(4,5-dimethylthiazol-2-yl)-5-(3-carboxymethoxyphenyl)-2-(4-sulfophenyl)-2H-tetrazolium) assay kit (Cell Titer 96 Aqueous One solution Cell Proliferation Assay™) and by following the manufacturer's protocol. All recorded values were normalized to healthy cells untreated with polymers. Platelet activation was performed by PE-labelled anti human […] stain was prepared by diluting 20 times using plasma. An aliquot of each platelet sample was labelled using the diluted PE-labelled anti-human […] solution (1:10 dilution) for 30 minutes at room temperature. Platelets incubated in 0.1 mM TRAP were used as positive control and platelets incubated in PE-labelled IgG were used for non-specific binding control. Each sample was analyzed for 10000 platelet events. Each experiment was replicated using a minimum of 3 donors and each donor was performed in triplicates. For human pancreatic islets, live/dead imaging assay was used for cell viability and DTZ detection assay was used to determine insulin-producing beta cells from mixed cell cultures.

Ea.hy926 cells [2] = test: Ammonia generation assay for gtTGase ligation on endothelial cells; type: cell-based; conditions: 4° C.; for NH3 production with TGase isoforms: gtTGase and mTGase, 30 minutes
Method: (§2) The solutions were mixed thoroughly and incubated at 4° C. for 30 minutes under static conditions. The cell supernatant was collected and the cells were washed three times with PBS and subjected to further analysis. The assessment of polymer attachment to endothelial cells are assessed by ammonia assay.
The extent of gtTGase ligation was assessed using an ammonia assay kit (Sigma™, MAK310) and used according to the manufacturer's protocols. This kit is used for the quantitative determination of ammonia (NH3), a side product in the gtTGase reaction.^6 This assay is based on the o-phthalaldehyde method in which the reagent reacts with NH3 producing a fluorescent product (λex=360 nm/λm=450 nm), proportional to the NH3 concentration in the sample.^7,8 Briefly, PBS was supplemented with 5 mM CaCl2 and 3 mM dithiothreitol (DTT). In a 96 well plate, containing either endothelial cells or glycine ethyl ether (GEE, amine donor), Q-tagged polymer (acyl donor) and guinea pig liver transglutaminase (gtTGase, Sigma™ T5398) were added to the PBS solution to a final concentration of 5 mM, 0.5 mM and 0.2 U/mL respectively (Vf=100 μL). The reaction was thoroughly mixed and rocked gently at 4° C. for 30 minutes. The sample was diluted four-fold and a 10 μL aliquot of the reaction mixture was then transferred to a tube containing 90 μL complete ammonia assay reagent and mixed thoroughly. The solution was left to react for 15 minutes at ambient temperature in the dark. The fluorescence intensity was measured at λex=360 nm/λem=450 nm using a spectrophotometer and the quantity of ammonia in solution was calculated according to Eq. 1: […]
EA.hy 926 cells plated for 15 days were washed twice with warm PBS before introducing a reaction cocktail containing 0.5 mM polymer, 5 mM CaCl2, 3 mM DTT and 0.2 U/mL transglutaminase made in DMEM media solution without phenol red. The reaction was incubated at 4° C. for 30 minutes. Then the supernatant was removed and subjected to ammonia generation assay and the cells were washed twice with warm PBS to remove unreacted polymers.

[3] = tested on: TNF-α activated Ea.hy926 cells co-cultured with IL-2 activated PBMCs; test: PBMC-mediated cytotoxicity (LDH assay); conditions: polymer ligated to cell surface
Method: EA.hy 926 monolayers were activated using TNF-α and PBMCs were activated using IL-2 as described in PBMC adhesion experiments. Following activation, PBMC was collected and resuspended in DMEM (Phenol free, 5% FBS, pen/strep). PBMCs were then added to activated EA.hy 926 monolayers (modified and unmodified) to a final concentration of 0.15×10^6 cells/mL and left to incubate at 37° C. and 5% CO2 for 18 hour. After treatment, the supernatant was collected and cell debris was removed through centrifugation. LDH content was measured using LDC cytotoxicity assay (Biovision Inc.™). Cytotoxicity was calculated using the equation below;
where, LDHsample is the amount of LDH released from the sample, LDHPBMC is the amount of LDH released from PBMC samples not subjected to EA.hy 926 monolayers, LDHalive is the amount of LDH released from EA.hy 926 monolayers not subjected to PBMCs, and LDHdead is the amount of LDH released of EA.hy926 monolayers treated with RIPA buffer for 10 minutes at room temperature.

HMEC-1 cell monolayers = test: Transendothelial protein passage (FITC-labelled BSA); type: cell-based; conditions: TNF-α 2000 U/mL, 3 hours; 0.5 mM polymer
human pancreatic islets = test: Compatibility of cell surface engineering on pancreatic islets (LIVE/DEAD, DTZ); type: cell-based; conditions: 0.5 mM polymer, room temperature, 30 minutes
Method: FIG. 57: Compatibility of cell surface engineering on human pancreatic islet surfaces using gtTGase. Human pancreatic islets were incubated with 0.5 mM Q-tagged polymer, 0.2 U ml-1 gtTGase, 3 mM GSH and 5 mM CaCl2 at room temperature for 30 minutes. Cell viability was assessed using a LIVE/DEAD stain assay and insulin producing activity was assessed by DTZ detection assay.
as §1, with “For human pancreatic islets, live/dead imaging assay was used for cell viability and DTZ detection assay was used to determine insulin-producing beta cells from mixed cell cultures.” left out

[4] = tested on: BALB/c aortic allograft in C57/BL/6 recipient; test: Serum cytokine array after aortic interposition grafting; type: in vivo, mouse; conditions: 2 days and 15 days post-transplant, 0.5 mM LPGS-Q
Method: To assess the immune modulatory effect of enzymatic polymer grafting, an antibody array kit based on a sandwich ELISA principle (Proteome Profiler™, Panel A; R&D Systems™) was used to screen the cytokine and chemokine expression level in sera of animals according to the manufacturer's protocol. Relative expression of 40 murine cytokines and chemokines captured by corresponding antibodies spotted on a nitro-cellulose membrane was determined.
The antibodies for the following cytokines were spotted on the membrane: BLC, C5a, G-CSF, GM-CSF, I-309, Eotaxin, sICAM-1, IFN-g, IL-1a, IL-1b, IL-1ra, IL-2, IL-3, IL-4, IL-5, IL-6, IL-7, IL-10, IL-13, IL-12 p70, IL-16, IL-17 IL-23, IL-27, CXCL10 (IP-10), I-TAC, KC, M-CSF, CCL2 (MCP-1), CCL12 (MCP-5), MIG, CCL3 (MIP-1a), CCL4 (MIP-1b), CXCL2 (MIP-2), CCL5 (RANTES), SDF-1, TARC, TIMP-1, TNF-α, TREM-1. […] Following the blocking step for 1 h at 4° C., a mixture of detection antibody cocktail and 100 μL of serum sample was incubated overnight at 4° C. with the membrane. Captured proteins were labeled with a streptavidin-functionalized IR-Dye (IRDye 680RD Streptavidin; LI-COR) (1:20,000 dilution in 10% bovine serum albumin, 30 min at RT) and scanned using a LI-COR Odyssey Infrared Imaging System™. The software ImageJ™ (Version 1.52s) was used to determine the integrated density of the spots on the array images after background subtraction. […]

EA.hy 926 monolayers = test: PMS-induced glycocalyx shedding (WGA stain, flow cytometry); type: cell-based; conditions: compared to non-sulfated counterparts
Method: EA.hy 926 cells were grown to confluency. Media was replaced, washed with DPBS and incubated with […] NADH, […] PMS (unless otherwise noted) and the indicated concentration of polymer; with PMS being last to be added. […] The cells were then washed extensively, stained using WGA ([…]) for 15 minutes and harvested to be analyzed using flow cytometry. Neuraminidase enzyme was used as a positive control to shed the glycocalyx.

[5] = tested on: IL-2 activated PBMCs on TNF-α activated Ea.hy926 monolayers; test: PBMC adhesion to endothelial surfaces; type: cell-based, human
Method: Confluent Ea.hy926 monolayers seeded in a 48 well plate (30,000 cells/well) were activated with TNF-α (2000 U/mL, 3 hours). To obtain PBMCs, EDTA anticoagulated blood from healthy donors was subjected to ficoll density gradient centrifugation Histopaque™-1077 (Sigma Aldrich™). PBMCs were cultured for 24 h in RPMI-1640 containing 10% FBS (v/v), 1000 U/mL recombinant human IL-2 (Cedarlane™)^11 and 1% P/S. Prior to fluorescent labelling, cultured PBMCs were tested for absence of platelets by labelling an aliquot of cells with FITC-labelled anti-human […] (1:200 Beckman Coulter™) and analyzed by flow cytometry (CytoFLEX™, Beckman Coulter™). PBMCs containing <1% platelets were implemented for further study. The PBMC composition was also measured using a hematological analyzer (XN-550™ automated hematology analyzer, Sysmex Canada Inc.™). Following IL-2 treatment the typical composition of the PBMCs were ˜80% lymphocytes, 5% immature granulocytes, 2% basophils and 13% monocytes. […] PMBC adhesion was quantified by lysing the cells with RIPA buffer, spinning at 15,000 g to remove cell debris and measuring the fluorescent intensity of the CMFDA Dye in the lysate (λex/λem=492/517 nm using a plate reader (Spectramax3™, Molecular Devices™).

platelets = test: Platelet activation (CD62, flow cytometry); type: cell-based, human; conditions: 4° C.
Method: as §2
as §1, with “For human pancreatic islets, live/dead imaging assay was used for cell viability and DTZ detection assay was used to determine insulin-producing beta cells from mixed cell cultures.” left out

| Substance | cell viability with TGase isoforms (Ea.hy926 cells [1]) | NH3 production with TGase isoforms (Ea.hy926 cells [2]) | cell metabolic activity after bioconjugation (Ea.hy926 cells [1]) | cell viability under oxidative stress (Ea.hy926 cells [1]; cells grown 15 days, superoxide radicals) | PBMC-mediated endothelial cell death, in words [3] | permeability of the monolayer after TNF-α activation (HMEC-1 cell monolayers) | cell viability and insulin producing activity (human pancreatic islets) | cytokine profile of sera of recipient mice [4] | retention of the glycocalyx structure after exposure to superoxide anions (EA.hy 926 monolayers) | PBMC adhesion, in words [5] | NH3 production (surface ligation efficiency) (Ea.hy926 cells [2]; 0.5 mM polymer, gtTGase, 30 min) | platelet activation (CD62 surface markers) (platelets) |
| --- | --- | --- | --- | --- | --- | --- | --- | --- | --- | --- | --- | --- |
| GQQQLGGGGG-PEG: Q-tagged PEG polymer used to compare TGase isoforms (also: conjugated to PEG, site not given here) [reference compound] | favourable results | favourable results | – | – | – | – | – | – | – | – | – | – |
| Linear polyglycerol sulfate glutamine [LPGS-Q] | – | – | without affecting cell metabolic activity | rescue of the cells viability | reducing PBMC-mediated cytotoxicity | reduce non-specific macromolecule passage | still produce viable cells | beneficial anti-inflammatory properties post-transplantation | significantly larger retention of the glycocalyx structure | evading recognition and subsequent adhesion | higher ammonia production than its non-sulfated counterparts | did not induce platelet activation |
| WLAQRPH-PEG: Q-tagged PEG polymer used to compare TGase isoforms (also: conjugated to PEG, site not given here) [reference compound] | favourable results | favourable results | – | – | – | – | – | – | – | – | – | – |
